Results as given in patent US10098895B2, “Treatment of symptoms related to neurodegenerative disorders through pharmacological dermal activation of cranial nerves” (GLIA, LLC, priority 2016, dated 2018).

Columns and labels:
[1] = test system: Parkinson's disease symptoms; assay: Example 1: Parkinson's disease patient, dermal application to forehead and ear conchae
Description: A person was diagnosed with the early stages of Parkinson's disease in December of 2014. Their symptoms included tremors in the hands, impaired short term memory, slow and uncontrolled rigid movements while walking and eating, and declining ocular blink function. The patient also had dry eyes with hyper-tearing, burning, and itching.
The patient was also treated with progesterone 1% on the forehead initially once daily beginning in March 2015. […] The progesterone was applied as needed for about a year.
Instead of the prescribed regimen, the patient began dermal application of dronabinol 1.25 mg 2 times daily to three sites: (i) the forehead, (ii) the concha of the left ear, and (iii) the concha of the right ear. Each dose of 1.25 mg was divided equally between the three application sites. This treatment regimen began Friday Jun. 10, 2016 concurrent with the discontinuation of rasagiline.
In February 2017, the patient, who suffers from debilitating moderate spinal stenosis, started taking Azilect (rasagiline) and carbidopa-levodopa to improve their walking and flexibility. […] The patient decided that, together with the prescribed medications, they would switch from dronabinol to topical testosterone gel applied to the forehead and ear conchae to see if this would impact their longstanding low testosterone levels.
In March 2017, topical testosterone gel application was instituted as an adjunct to is the prescribed Azilect and carbidopa-levodopa.
The patient voluntarily stopped topical testosterone for 3 weeks in June 2017. […] At the end of 3 weeks, topical testosterone was re-instituted as an adjunct to the prescribed medications.

essential tremor = assay: Example 7: essential tremor subject with contact lens discomfort; type: in vivo, human
Description: A person developed persistent right hand tremors of a kinetic (non-resting) type that has been continuous over the past 6 years. […] This condition had not worsened over time. […] Initially, their doctor thought that these symptoms were stress related and they have been taking 2.5 mg of escitalopram for over 6 years. […] The subject was not on hormone replacement therapy or any other medication.
Concomitantly, the subject suffered from uncomfortable eyes, with a sticky burning sensation and development of blurred vision after about 5-6 hours of contact lens wear. For the past 3 years, the subject was administered 1% progesterone gel (1 mg per day) by dermal application to the forehead once per night. The progesterone gel prolonged comfortable contact lens wear time with sustained visual acuity from 5-6 hours to greater than 15 hours. […] After 2 years of treatment, the benefits of progesterone dermal application persisted for at least 3 days without treatment. There was no effect of the progesterone on their tremor symptoms.
After allowing for washout of progesterone for 3 days, they began forehead application of 0.5-0.75 mg dronabinol once daily at night.
The dronabinol administration regimen was altered by dividing equally the once daily dose of 0.5-0.75 mg dronabinol between the conchae of the left ear, the conchae of the right ear, and the forehead. […] Comfortable contact lens wear, with ease of insertion and removal, and visual acuity extends for 15 hours or more after dronabinol application.
Contact lens comfort wear duration was greater than 15 hours.
In April 2017, the subject, while still being treated with 1% progesterone applied to the forehead, instituted a once-daily low dose topical testosterone applied to the forehead and ear conchae to determine if doing so would produce a beneficial impact on further tremor reduction and in particular essential tremor triggered by caffeine consumption. […] They stopped the treatment to assess whether the tremor would return to pre-testosterone treatment levels. As of August 2017, the subject is without noticeable tremor. The caffeine trigger for tremor onset, which had been recognized throughout all treatments, has not re-appeared since the completion of the 4-week testosterone treatment. The subject continues on low-dose progesterone 1% applied daily to the forehead as the only treatment.

[2] = test system: Parkinson's disease symptoms; assay: Example 2: Parkinson's disease subject, topical progesterone and testosterone; type: in vivo, human
Description: A person was diagnosed with Parkinson's disease in August of 2015. Notable symptoms include both resting and action tremor of the left hand and fingers, forearm, and, to a lesser extent, the right hand and the left leg. Handwriting and computer keyboard work were difficult. They had ocular symptoms associated with the disease, including dry eye disease with moderate to severe burning and grittiness, rapid blink rate, and partial blinking. They used artificial tears constantly in an attempt to alleviate the ocular symptoms. They had not been on any Parkinson's medications. Their Parkinson's tremor followed an “on-off” cycle that correlated with their stress levels, the “on” cycle being times with low stress and few symptoms, and the “off” cycle induced by stress showing an increase in symptoms.
In late February 2017, the subject started applying single daily doses of 0.125% testosterone to the forehead and ear conchae. By the third day of treatment, the subject was tremor-free for periods of 4-6 hours, and the “on” part of the cycle was more frequent. […] The dose of testosterone was increased to 0.2% once daily in early April.
In July 2017, testosterone application was stopped after a taper to evaluate its effects. […] On Aug. 17, 2017, they reported extreme anxiety.
That same afternoon, the subject applied 0.2% testosterone to their forehead and ear conchae, and the next day reported less anxiety and more “on” cycles. By Aug. 20, 2017, they reported having stabilized on the once daily applications with a 60% or greater increase in “on” periods. On August 28, they reported going 9 hours without tremors and leg spasms. On Aug. 30, 2017, the subject was able to walk 8 miles and exercised in between. They described themself as feeling 100%.

[3] = prescribed Azilect (rasagiline) together with carbidopa-levodopa
[4] = once-daily low dose topical testosterone to forehead and ear conchae, 4 weeks, with 1% progesterone to forehead

`C#CCN[C@@H]1CCc2ccccc21` [Azilect, rasagiline] was tested, and the motor function [1, 3] was “some motor function improvement” and the tremor [1, 3] was “no more improved than when they were applying dronabinol alone”.
For `CN(C)CCC[C@@]1(c2ccc(F)cc2)OCc2cc(C#N)ccc21` [escitalopram], the tremor (essential tremor; 2.5 mg of escitalopram for over 6 years) was “no resolution of the tremor”.
`C[C@]12CC[C@H]3[C@@H](CCC4=CC(=O)CC[C@@]43C)[C@@H]1CC[C@@H]2O` [testosterone] was tested, and the tremor-free days ([2]; 0.125% testosterone once daily, mid-March) was “two full days tremor-free”, the “tremor amplitude and resolution” value ([2]; 0.125% testosterone single daily doses to forehead and ear conchae) was “the amplitude was less, and the tremors resolved sooner” and the tremor-free periods ([2]; 0.125% testosterone single daily doses to forehead and ear conchae, by the third day) was 4 to 6 h. The “time without tremors and leg spasms” value ([2]; 0.2% testosterone once daily, August 28) was 9 h, the “increase in 'on' periods” value ([2]; 0.2% testosterone once daily, by Aug. 20, 2017) was at least 60% and the anxiety ([2]; 0.2% testosterone re-applied to forehead and ear conchae, next day) was “less anxiety”. For the same compound, the “symptom trend after stopping treatment” value ([2]; 6 weeks of testosterone abstinence) was “downward trend in symptoms to pre-treatment levels”, the “blood total and free testosterone” value ([2]; July 2017, after topical testosterone 0.125-0.2% once daily) was “mildly elevated total and free testosterone” and the “tremors after stopping treatment” value ([2]; day 3 of testosterone abstinence) was “tremors were more frequent”. For the same compound, the “stress management, mood, libido” value ([2]; testosterone 0.2% once daily, through April 2017) was “improved stress management, elevated mood with increase in libido and vaginal lubrication”, the “disease progression, assessed by neurologists” value ([2]; testosterone administration, no prescribed Parkinson's medications) was “no disease progression” and the negative side effects ([2]; topical testosterone, February to July 2017) was “No negative side effects”. For the same compound, the “caffeine trigger of essential tremor” value (essential tremor; [4]) was “near complete resolution of the caffeine trigger”, the “reduction in tremor amplitude and frequency over the original baseline” value (essential tremor; [4]) was at most 90% and the “overall functioning after resumption” value ([1]; testosterone resumed after a three week hiatus) was “returned immediately to the improved levels”. For the same compound, the “mental stability, reported by wife” value ([1]; testosterone to forehead and ears, one-year period up to August 2017) was “very positive impact on their mental stability”, the adverse events ([1]; throughout low dose neural cranial treatment) was “no adverse events were noted” and the “cognitive and non-motor symptoms” value ([1]; topical testosterone gel to forehead and ear conchae, adjunct to Azilect and carbidopa-levodopa, by the third day) was “improvement in cognitive and non-motor symptoms”. The “cognitive and emotional function after stopping treatment” value ([1]; topical testosterone stopped for 3 weeks, within 3 days) was “significant decline in cognitive and emotional function”.
